Laboratory results taken from PubChem BioAssay (NCI).
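All cell lines were grown in 96-well plates and treated with compound for 48 hours. The concentration for full growth arrest is given as TGI.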

Legend:
Assay in all cases: growth of human tumour cells (NCI), 48 h
[1] = system: 786-0 renal
[2] = system: A498 renal
[3] = system: A549 NSCLC
[4] = system: ACHN renal
[5] = system: CAKI-1 renal
[6] = system: CCRF-CEM leukemia
[7] = system: COLO 205 colon
[8] = system: DU-145 prostate
[9] = system: EKVX NSCLC
[10] = system: HCC-2998 colon
[11] = system: HCT-116 colon
[12] = system: HCT-15 colon
[13] = system: HOP-62 NSCLC
[14] = system: HOP-92 NSCLC
[15] = system: HS 578T breast
[16] = system: HT29 colon
[17] = system: IGROV1 ovarian
[18] = system: K-562 leukemia
[19] = system: KM12 colon
[20] = system: LOX IMVI melanoma
[21] = system: M14 melanoma
[22] = system: MALME-3M melanoma
[23] = system: MCF7 breast
[24] = system: MDA-MB-231 breast
[25] = system: MDA-MB-435
[26] = system: MDA-N
[27] = system: MOLT-4 leukemia
[28] = system: NCI-H226 lung
[29] = system: NCI-H23 lung
[30] = system: NCI-H460 lung
[31] = system: NCI-H522 lung
[32] = system: NCI/ADR-RES ovarian
[33] = system: OVCAR-3 ovarian
[34] = system: OVCAR-4 ovarian
[35] = system: OVCAR-5 ovarian
[36] = system: OVCAR-8 ovarian
[37] = system: PC-3 prostate
[38] = system: RPMI-8226 leukemia
[39] = system: SF-268 CNS
[40] = system: SF-295 CNS
[41] = system: SF-539 CNS
[42] = system: SK-MEL-2 melanoma
[43] = system: SK-MEL-28 melanoma
[44] = system: SK-MEL-5 melanoma
[45] = system: SK-OV-3 ovarian
[46] = system: SN12C renal
[47] = system: SNB-19 CNS
[48] = system: SNB-75 CNS
[49] = system: SR leukemia
[50] = system: SW-620 colon
[51] = system: T-47D breast
[52] = system: TK-10 renal
[53] = system: U251 CNS
[54] = system: UACC-257 melanoma
[55] = system: UACC-62 melanoma
[56] = system: UO-31 renal

CCC1=C(c2ccc(OC)cc2)CC[C@@]2(CCNC2=O)[C@@H]1C
TGI [1]: > 100 µM
TGI [2]: > 100 µM
TGI [3]: > 100 µM
TGI [4]: > 100 µM
TGI [5]: > 100 µM
TGI [6]: > 100 µM
TGI [7]: > 100 µM
TGI [8]: > 100 µM
TGI [9]: > 100 µM
TGI [10]: > 100 µM
TGI [11]: > 100 µM
TGI [12]: > 100 µM
TGI [13]: > 100 µM
TGI [14]: > 100 µM
TGI [15]: > 89.5 µM
TGI [16]: > 100 µM
TGI [17]: > 100 µM
TGI [18]: > 95.9 µM
TGI [19]: > 100 µM
TGI [20]: > 100 µM
TGI [21]: > 100 µM
TGI [22]: > 100 µM
TGI [23]: > 100 µM
TGI [24]: > 100 µM
TGI [25]: > 100 µM
TGI [26]: > 100 µM
TGI [27]: > 90.3 µM
TGI [28]: > 100 µM
TGI [29]: > 100 µM
TGI [30]: > 100 µM
TGI [31]: > 100 µM
TGI [32]: > 100 µM
TGI [33]: > 100 µM
TGI [34]: > 100 µM
TGI [35]: > 100 µM
TGI [36]: > 100 µM
TGI [37]: > 100 µM
TGI [38]: > 100 µM
TGI [39]: > 100 µM
TGI [40]: > 100 µM
TGI [41]: > 100 µM
TGI [42]: > 100 µM
TGI [43]: > 100 µM
TGI [44]: 58.7 µM
TGI [45]: > 100 µM
TGI [46]: > 100 µM
TGI [47]: > 100 µM
TGI [48]: > 100 µM
TGI [49]: > 100 µM
TGI [50]: > 100 µM
TGI [51]: > 100 µM
TGI [52]: > 100 µM
TGI [53]: > 100 µM
TGI [54]: > 100 µM
TGI [55]: > 100 µM
TGI [56]: > 100 µM
